Source: patent US20120083522A1, “MODULATION OF INFLAMMATORY RESPONSES BY FACTOR XI” (Isis Pharmaceuitcals, inc., priority 2009, published 2012)
In the oligonucleotide strings, read from the 5' end, every base follows the letter of its sugar. An asterisk marks phosphorothioate; unmarked linkages are phosphodiester. Other units and linkages are bracketed, terminal groups are in braces. A string of capitals states the bases alone. e = 2'-O-(2-methoxyethyl) (MOE); [5mC] = 5-methylcytosine; d = 2'-deoxy (DNA)

System: human Factor XI mRNA
Assay: Antisense inhibition in HepG2 cells by microwalk gapmers, 8,000 nM, electroporation (Example 14)
Type: cell-based
Settings: HepG2 cells, 8,000 nM
Method: These microwalk gapmers were tested in vitro. Cultured HepG2 cells at a density of 20,000 cells per well were transfected using electroporation with 8,000 nM antisense oligonucleotide. After a treatment period of approximately 24 hours, RNA was isolated from the cells and Factor XI mRNA levels were measured by quantitative real-time PCR. Factor XI mRNA levels were adjusted according to total RNA content, as measured by RIBOGREEN. Results are presented as percent inhibition of Factor XI, relative to untreated control cells.
The chimeric antisense oligonucleotides in Table 51 were designed as 5-10-5 MOE, 5-8-5 and 6-8-6 MOE gapmers. The first two listed gapmers in Table 51 are the original gapmers (ISIS 416850 and ISIS 416858) from which ISIS 445493-445543 were designed via microwalk, and are designated by an asterisk. The 5-10-5 gapmers are 20 nucleotides in length, wherein the central gap segment is comprised of ten 2′-deoxynucleotides and is flanked on both sides (in the 5′ and 3′ directions) by wings comprising five nucleotides each. The 5-8-5 gapmers are 18 nucleotides in length, wherein the central gap segment is comprised of eight 2′-deoxynucleotides and is flanked on both sides (in the 5′ and 3′ directions) by wings comprising five nucleotides each. The 6-8-6 gapmers are 20 nucleotides in length, wherein the central gap segment is comprised of eight 2′-deoxynucleotides and is flanked on both sides (in the 5′ and 3′ directions) by wings comprising six nucleotides each. For each of the motifs (5-10-5, 5-8-5 and 6-8-6), each nucleotide in the 5′ wing segment and each nucleotide in the 3′ wing segment has a 2′-MOE modification. The internucleoside linkages throughout each gapmer are phosphorothioate (P═S) linkages. All cytidine residues throughout each gapmer are 5-methylcytidines. “Human Target start site” indicates the 5′-most nucleotide to which the gapmer is targeted in the human sequence. “Human Target stop site” indicates the 3′-most nucleotide to which the gapmer is targeted in the human sequence. Each gapmer listed in Table 51 is targeted to SEQ ID NO: 1 (GENBANK Accession No. NM_000128.3). Each gapmer is Table 51 is also fully cross-reactive with the rhesus monkey Factor XI gene sequence, designated herein as SEQ ID NO: 274 (exons 1-15 GENBANK Accession No. NW—001118167.1). ‘Rhesus monkey start site’ indicates the 5′-most nucleotide to which the gapmer is targeted in the rhesus monkey sequence. ‘Rhesus monkey stop site’ indicates the 3′-most nucleotide to which the gapmer is targeted to the rhesus monkey sequence.

Substance: 445495 (antisense GCACAGTTTCTGGCAGGCCT; 6-8-6 gapmer chemistry, chemistry not fully specified) [compound 445495]
- Percent inhibition of human Factor XI mRNA levels: 89%

Substance: 445496 (antisense TGCACAGTTTCTGGCAGGCC; 6-8-6 gapmer chemistry, chemistry not fully specified) [compound 445496]
- Percent inhibition of human Factor XI mRNA levels: 87%

Substance: 445497 (antisense GTGCACAGTTTCTGGCAGGC; 6-8-6 gapmer chemistry, chemistry not fully specified) [compound 445497]
- Percent inhibition of human Factor XI mRNA levels: 81%

Substance: 445499 (antisense TGGTGCACAGTTTCTGGCAG; 6-8-6 gapmer chemistry, chemistry not fully specified) [compound 445499]
- Percent inhibition of human Factor XI mRNA levels: 75%

Substance: 445500 (antisense TTGGTGCACAGTTTCTGGCA; 6-8-6 gapmer chemistry, chemistry not fully specified) [compound 445500]
- Percent inhibition of human Factor XI mRNA levels: 81%

Substance: 445501 (antisense ATTGGTGCACAGTTTCTGGC; 6-8-6 gapmer chemistry, chemistry not fully specified) [compound 445501]
- Percent inhibition of human Factor XI mRNA levels: 83%

Substance: 445502 (antisense e[5mC]*eA*eT*eT*eG*eG*dT*dG*d[5mC]*dA*d[5mC]*dA*dG*dT*eT*eT*e[5mC]*eT*eG*eG) [compound 445502]
- Percent inhibition of human Factor XI mRNA levels: 83%

Substance: 445506 (antisense eA*e[5mC]*eG*eG*e[5mC]*eA*dT*dT*dG*dG*dT*dG*d[5mC]*dA*e[5mC]*eA*eG*eT*eT*eT) [compound 445506]
- Percent inhibition of human Factor XI mRNA levels: 86%

Substance: 445507 (antisense eG*eA*e[5mC]*eG*eG*e[5mC]*dA*dT*dT*dG*dG*dT*dG*d[5mC]*eA*e[5mC]*eA*eG*eT*eT) [compound 445507]
- Percent inhibition of human Factor XI mRNA levels: 85%

Substance: 445508 (antisense eG*eG*eA*e[5mC]*eG*eG*d[5mC]*dA*dT*dT*dG*dG*dT*dG*e[5mC]*eA*e[5mC]*eA*eG*eT) [compound 445508]
- Percent inhibition of human Factor XI mRNA levels: 81%

Substance: 445509 (antisense e[5mC]*eG*eG*eA*e[5mC]*eG*dG*d[5mC]*dA*dT*dT*dG*dG*dT*eG*e[5mC]*eA*e[5mC]*eA*eG) [compound 445509]
- Percent inhibition of human Factor XI mRNA levels: 84%

Substance: 445510 (antisense eG*e[5mC]*eG*eG*eA*e[5mC]*dG*dG*d[5mC]*dA*dT*dT*dG*dG*eT*eG*e[5mC]*eA*e[5mC]*eA) [compound 445510]
- Percent inhibition of human Factor XI mRNA levels: 88%

Substance: 445511 (antisense eA*eG*e[5mC]*eG*eG*eA*d[5mC]*dG*dG*d[5mC]*dA*dT*dT*dG*eG*eT*eG*e[5mC]*eA*e[5mC]) [compound 445511]
- Percent inhibition of human Factor XI mRNA levels: 77%

Substance: 445512 (antisense e[5mC]*eA*eG*e[5mC]*eG*eG*dA*d[5mC]*dG*dG*d[5mC]*dA*dT*dT*eG*eG*eT*eG*e[5mC]*eA) [compound 445512]
- Percent inhibition of human Factor XI mRNA levels: 79%

Substance: 445513 (antisense eG*e[5mC]*eA*eG*e[5mC]*eG*dG*dA*d[5mC]*dG*dG*d[5mC]*dA*dT*eT*eG*eG*eT*eG*e[5mC]) [compound 445513]
- Percent inhibition of human Factor XI mRNA levels: 85%

Substance: 445514 (antisense eG*eG*e[5mC]*eA*eG*e[5mC]*dG*dG*dA*d[5mC]*dG*dG*d[5mC]*dA*eT*eT*eG*eG*eT*eG) [compound 445514]
- Percent inhibition of human Factor XI mRNA levels: 81%

Substance: 445515 (antisense eT*eG*eG*e[5mC]*eA*eG*d[5mC]*dG*dG*dA*d[5mC]*dG*dG*d[5mC]*eA*eT*eT*eG*eG*eT) [compound 445515]
- Percent inhibition of human Factor XI mRNA levels: 75%

Substance: 445516 (antisense e[5mC]*eT*eG*eG*e[5mC]*eA*dG*d[5mC]*dG*dG*dA*d[5mC]*dG*dG*e[5mC]*eA*eT*eT*eG*eG) [compound 445516]
- Percent inhibition of human Factor XI mRNA levels: 79%

Substance: 445517 (antisense eA*e[5mC]*eT*eG*eG*e[5mC]*dA*dG*d[5mC]*dG*dG*dA*d[5mC]*dG*eG*e[5mC]*eA*eT*eT*eG) [compound 445517]
- Percent inhibition of human Factor XI mRNA levels: 74%

Substance: 445518 (antisense eA*eG*eT*eT*eT*d[5mC]*dT*dG*dG*d[5mC]*dA*dG*dG*e[5mC]*e[5mC]*eT*e[5mC]*eG) [compound 445518]
- Percent inhibition of human Factor XI mRNA levels: 75%

Substance: 445519 (antisense e[5mC]*eA*eG*eT*eT*dT*d[5mC]*dT*dG*dG*d[5mC]*dA*dG*eG*e[5mC]*e[5mC]*eT*e[5mC]) [compound 445519]
- Percent inhibition of human Factor XI mRNA levels: 81%

Substance: 445520 (antisense eA*e[5mC]*eA*eG*eT*dT*dT*d[5mC]*dT*dG*dG*d[5mC]*dA*eG*eG*e[5mC]*e[5mC]*eT) [compound 445520]
- Percent inhibition of human Factor XI mRNA levels: 82%

Substance: 445521 (antisense e[5mC]*eA*e[5mC]*eA*eG*dT*dT*dT*d[5mC]*dT*dG*dG*d[5mC]*eA*eG*eG*e[5mC]*e[5mC]) [compound 445521]
- Percent inhibition of human Factor XI mRNA levels: 87%

Substance: 445523 (antisense eT*eG*e[5mC]*eA*e[5mC]*dA*dG*dT*dT*dT*d[5mC]*dT*dG*eG*e[5mC]*eA*eG*eG) [compound 445523]
- Percent inhibition of human Factor XI mRNA levels: 73%

Substance: 445524 (antisense eG*eT*eG*e[5mC]*eA*d[5mC]*dA*dG*dT*dT*dT*d[5mC]*dT*eG*eG*e[5mC]*eA*eG) [compound 445524]
- Percent inhibition of human Factor XI mRNA levels: 75%

Substance: 445525 (antisense eG*eG*eT*eG*e[5mC]*dA*d[5mC]*dA*dG*dT*dT*dT*d[5mC]*eT*eG*eG*e[5mC]*eA) [compound 445525]
- Percent inhibition of human Factor XI mRNA levels: 85%

Substance: 445526 (antisense eT*eG*eG*eT*eG*d[5mC]*dA*d[5mC]*dA*dG*dT*dT*dT*e[5mC]*eT*eG*eG*e[5mC]) [compound 445526]
- Percent inhibition of human Factor XI mRNA levels: 81%

Substance: 445527 (antisense eT*eT*eG*eG*eT*dG*d[5mC]*dA*d[5mC]*dA*dG*dT*dT*eT*e[5mC]*eT*eG*eG) [compound 445527]
- Percent inhibition of human Factor XI mRNA levels: 70%

Substance: 445528 (antisense eA*eT*eT*eG*eG*dT*dG*d[5mC]*dA*d[5mC]*dA*dG*dT*eT*eT*e[5mC]*eT*eG) [compound 445528]
- Percent inhibition of human Factor XI mRNA levels: 73%

Substance: 445529 (antisense e[5mC]*eA*eT*eT*eG*dG*dT*dG*d[5mC]*dA*d[5mC]*dA*dG*eT*eT*eT*e[5mC]*eT) [compound 445529]
- Percent inhibition of human Factor XI mRNA levels: 85%

Substance: 445530 (antisense eG*e[5mC]*eA*eT*eT*dG*dG*dT*dG*d[5mC]*dA*d[5mC]*dA*eG*eT*eT*eT*e[5mC]) [compound 445530]
- Percent inhibition of human Factor XI mRNA levels: 83%

Substance: 445533 (antisense eA*e[5mC]*eG*eG*e[5mC]*dA*dT*dT*dG*dG*dT*dG*d[5mC]*eA*e[5mC]*eA*eG*eT) [compound 445533]
- Percent inhibition of human Factor XI mRNA levels: 87%

Substance: 445534 (antisense eG*eA*e[5mC]*eG*eG*d[5mC]*dA*dT*dT*dG*dG*dT*dG*e[5mC]*eA*e[5mC]*eA*eG) [compound 445534]
- Percent inhibition of human Factor XI mRNA levels: 82%

Substance: 445535 (antisense eG*eG*eA*e[5mC]*eG*dG*d[5mC]*dA*dT*dT*dG*dG*dT*eG*e[5mC]*eA*e[5mC]*eA) [compound 445535]
- Percent inhibition of human Factor XI mRNA levels: 83%

Substance: 445536 (antisense e[5mC]*eG*eG*eA*e[5mC]*dG*dG*d[5mC]*dA*dT*dT*dG*dG*eT*eG*e[5mC]*eA*e[5mC]) [compound 445536]
- Percent inhibition of human Factor XI mRNA levels: 82%

Substance: 445537 (antisense eG*e[5mC]*eG*eG*eA*d[5mC]*dG*dG*d[5mC]*dA*dT*dT*dG*eG*eT*eG*e[5mC]*eA) [compound 445537]
- Percent inhibition of human Factor XI mRNA levels: 78%

Substance: 445538 (antisense eA*eG*e[5mC]*eG*eG*dA*d[5mC]*dG*dG*d[5mC]*dA*dT*dT*eG*eG*eT*eG*e[5mC]) [compound 445538]
- Percent inhibition of human Factor XI mRNA levels: 80%

Substance: 445539 (antisense e[5mC]*eA*eG*e[5mC]*eG*dG*dA*d[5mC]*dG*dG*d[5mC]*dA*dT*eT*eG*eG*eT*eG) [compound 445539]
- Percent inhibition of human Factor XI mRNA levels: 79%

Substance: 445540 (antisense eG*e[5mC]*eA*eG*e[5mC]*dG*dG*dA*d[5mC]*dG*dG*d[5mC]*dA*eT*eT*eG*eG*eT) [compound 445540]
- Percent inhibition of human Factor XI mRNA levels: 74%

Substance: 445541 (antisense eG*eG*e[5mC]*eA*eG*d[5mC]*dG*dG*dA*d[5mC]*dG*dG*d[5mC]*eA*eT*eT*eG*eG) [compound 445541]
- Percent inhibition of human Factor XI mRNA levels: 80%
